The test system of data set [1] is glucose uptake in H1299 human lung cancer cells. Kind of data set: Glucose uptake assay. The following applies: 30 μM, 15 min. It counts as cell-based.
Data set [2] relates to Na^+/K^+-ATPase (adenosine 5′-triphosphatase from porcine cerebral cortex). Description: Na+/K+-ATPase activity assay. It counts as biochemical. Particulars: 7: at concentrations less than 100 μM.
Data set [3] concerns small panel of human cancer cell lines. Particulars: read-out: IC50, cytotoxicity against a small panel of human cancer cell lines; cited from earlier work.
Another data set concerns ipsilateral kidney. The following applies: 12–27 kg female dogs, renal-artery infusion, 0.05–0.08 mg/kg; cited from earlier work.

SMILES strings stand for the structures.

Turning to `C[C@H]1O[C@@H](O[C@H]2[C@@H](O)C[C@H](O[C@H]3[C@@H](O)C[C@H](O[C@H]4CC[C@@]5(C)[C@H](CC[C@@H]6[C@@H]5C[C@@H](O)[C@]5(C)[C@@H](C7=CC(=O)OC7)CC[C@]65O)C4)O[C@@H]3C)O[C@@H]2C)C[C@H](O)[C@@H]1O` [compound 1, (+)-Digoxin], in data set [1], the “inhibition of glucose uptake / glucose transport (in words)” value is reported as “did not inhibit glucose uptake”. The “inhibition of glucose uptake / glucose transport (in words)” value in data set [1] (listed as (+)-digoxin) is “did not inhibit glucose transport”. In addition, the “inhibition of Na+/K+-ATPase activity (in words)” value in data set [2] is “inhibited Na^+/K^+-ATPase activity in a concentration-dependent manner”. Moreover, in data set [3], the IC50 (commonly the point on the concentration scale where inhibition reaches its midpoint) was 40 to 200 nM. In the data set on ipsilateral kidney, the “excretion of Ca2+, Mg2+, and PO4 3- by the ipsilateral kidney (in words)” value is “enhanced”; the “maximal transport of glucose (in words)” value is recorded as “no change in the maximal transport of glucose”.

The record behind these values is paper PMC7243443 (Journal of natural products, 2020).
